Data reported in patent US5041535A, “Antileukemic and immunostimulant peptides” (Richter Gedeon Vegyeszeti Gyar Rt., priority 1986, dated 1991).

Tests used:
[1] = tested on: PEC cells; assay: Phagocytosis inhibited by cyclophosphamide, non-simultaneously administered cyclophosphamide and peptide; type: in vivo, CFLP mice; details: CY 80 mg/kg p.o., CY alone 112.1 ± 6.4, control 221 ± 9.4
Protocol: (§1) Male CFLP mice weighing 22-23 g are divided into five groups of 8-12 animals each. The animals belonging to the test groups (all groups except the control one) are treated for two days once a day with a 80 mg/kg p.o. dose of cyclophosphamide and the animals of three of the said groups are treated simultaneously with the administration of cyclophosphamide with a 0.1, 1.0 and 10 mg/kg s.c. dose, respectively, of Glp-Lys-NH2 -mandelate dissolved in a physiological soidum chloride solution. On the 3rd day of the test the yeast cell incorporating capacity of the PEC cells is determined. The x±S.E.M. values disclosed in the Table stand for the number of yeast cells incorporated by the 100 PEC cells. One proceeds as described in test a) except that the peptide is administered to the animals 6 hours after treatment with cyclophosphamide. The test is evaluated as described above.

[2] = tested on: peritoneal exsudatum cells (PEC); assay: Effect on phagocytosis, in vivo; design: species or system CFLP mice; details: 24th hour after treatment, control 179.7 ± 3.6
Protocol: Male CFLP mice having a body of weight of 22-23 g are divided into four groups of 8-12 animals each. The animals of the test groups are treated with Glp-Lys-NH2 -mandelate for 2 days. The treatment is carried out by administering a 0.1, 1 or 10 mg/kg s.c. dose, respectively, of the active ingredient once a day, in the form of a solution in a physiological sodium chloride solution. In the 24th hour after the last treatment the yeast cell incorporating capacity of the peritoneal exsudatum cells (PEC) is determined. In the Table the x±S.E.M. data relate to the number of yeast cells incorporated into the 100 PEC cells.

[3] = tested on: PEC cells; assay: Phagocytosis inhibited by cyclophosphamide, simultaneously administered cyclophosphamide and peptide; type: in vivo, CFLP mice; details: 2 days, CY alone 102.5 ± 4.8, control 186.3 ± 7.8
Protocol: as §1, with “cells.” for “cells. One proceeds as described in test a) except that the peptide is administered to the animals 6 hours after treatment with cyclophosphamide. The test is evaluated as described above.”

[4] = tested on: human K-562 erythroleukaemical cell-line; assay: Inhibition of the proliferation of tumor cells (K-562); type: cell-based; details: 72nd hour after treatment, percentage of the control
Protocol: In the test human K-562 erythroleukaemical cell-line is used (Karolinska Institute, Stockholm). Incubation is carried out in a nutrient medium designated RPMI-1640 (manufactured by Flow, Great Britain) comprising 10% of foetal calf serum, at a temperature of 37° C., in a humidified incubator containing 3% of carbon dioxide, in plastic dishes. Every point of measurement corresponds to the average of the data measured in three dishes, each. At the beginning of the test the dilution amounts to 0.5×10^5 cells/ml. Treatment is carried out 24 hours after dilution in a manner that the medium is not changed after the treatment. The cells are counted for 96 hours after dilution every 24th hour wit the aid of a Buerker chamber.
Under the effect of the peptide in the 24th hour after treatment the cell number stagnates and later it increases to a very small extent. […] The tumor-cell division inhibiting effect of the new peptides is summarized in Table 1 (72 hours after treatment). The rate of inhibition is expressed in the percentage of the control. It clearly appears from the data of the Table that the tested peptides inhibit the proliferation of human K-562 erythroleukaemic cells.

[5] = tested on: Lewis Lung Tumor (LLT); assay: Tumor metastasis inhibiting effect; type: in vivo, C57 B1 mice; details: single 10 mg/kg i.p., 18th day
Protocol: 20 g male C57 B1 mice divided into groups consisting of 5 animals each, are injected with a Lewis Lung Tumor (LLT) cell-suspension. The said cell-suspension is administered into the tail vein, in a dose of 10^5 cells/mouse. Twenty-four hours after the administration of the tumor-cells the animals are treated with a single 10 mg/kg i.p. dose of the test compound. On the 18th day following infection with the tumor the animals are sacrificed and the cancer noduli appearing in the lungs are counted under a stereomicroscope. Animals not treated with peptide serve as control. In Table 8 the results obtained with Glp-Lys-NH2 dipeptide amide are disclosed.

[6] = tested on: antibody production inhibited by cyclophosphamide; assay: Effect on antibody production in mice treated with cyclophosphamide; type: in vivo, CELP mice; details: cyclophosphamide 100 mg/kg i.p., titer on 6th day
Protocol: The effect on in vivo antibody production is tested on CELP mice treated with a 100 mg/kg body weight dose of cyclophosphamide {2-[bis-(2-chloroethyl)-amino]-tetrahydro-2H-1,3,2-oxaza -phosphorine-2-oxide; method: Z. Naturforsch. 35B, 1476 (1980)}. The mice are intraperitoneally immunized with a 1% sheep erythrocyte suspension previously washed three times with a 0.9% sodium chloride solution after 10 minutes of centrifuging at 2,500 r.p.m. Simultaneously with immunization carried out on the 0. day, the activity of the immune system is suppressed by means of treatment with a 100 mg/kg i.p. does of cyclophosphamide. On the 3rd day of the test the peptides are administered to the animals intraperitoneally in a dose of 5, 50 and occasionally 100 mg/kg respectively. On the 6th day of the test blood is taken retroorbitally from the mice and the anti-sheep erythrocyte titer of the serum is determined. […] The effect of the peptides is expressed as percentage of the relief of inhibition (G %).

[7] = tested on: inflammation induced by oxozolone; assay: Dermatitis test induced with oxazolone; type: in vivo, CFLP mice; details: 24th hour after treatment, ear weight increase
Protocol: In this test a modified pharmacological model of D. P. Evans et al. [Br. J. Pharmac. 43, 403-488 (1971)] is used.
The abdominal skin of male CFLP mice weighing 20-22 g is painted after the removal of the hair with 0.1 ml of a 2% solution of oxazolon (4-ethoxymethyl-2-phenyl-oxazoline, manufacturer Sigma) in sunflower oil. On the right ear of the test animals 7 days after sensitization (painting) inflammatory reaction is induced with the aid of 10 μl of a 2% acetonous oxazolone solution and simultaneously the animals are treated with a 1 or 2 mg/kg, respectively, i.p. does of the test compound. The test compound is dissolved in a physiological sodium chloride solution in such a concentration that the active ingredient content corresponding to the dose should be dissolved in a volume of 0.5 ml/10 g animal body weight.
The antiinflammatory effect is determined as follows: the animals are sacrificed in the 24th hour after treatment, whereupon the right and left ears are cut off. The percentual weight increase of the right ear related to the left ear is characteristic of the rate of inflammation induced during the test, while the percentual reduction of weight increase of the treated animals related to the untreated control is proportional to the antiinflammatory effect. In Table 4 the reduction of weight increase (antiinflammatory effect) achieved by the test compounds is disclosed, as the percentage of the untreated control.

[8] = tested on: lymphocytes inhibited by Azathioprine; assay: E-rosetta test inhibited by Azathioprine; type: cell-based
Protocol: Inhibition of the proliferation of T-lymphocytes is tested in the E-rosetta test inhibited by Azathioprine [6-(1-methyl-4-nitroimidazole-5-yl-thio)-purine; Thymus 1, 195 (1980)].
To 200 μl of a healthy lymphocyte cell-suspension 500 μl/ml of Azathioprine and 200 μl of a separate dilution of the test compound in HBBS buffer (manufacturer: Flow, Great Britain) are added (concentration range: 10^-3 to […]). The mixture is incubated at a temperature of 37° C. in air containing 5% of carbon dioxide for 60 minutes, whereupon 200 μl of a 1% sheep erythrocyte suspension are added. The mixture thus-obtained is centrifuged at 1,000 r.p.m. for 5 minutes, the supernatant is removed by decanting and in the suspension the lymphocytes forming E-rosetta are counted under a microscope from at least 400 cells.
Under the effect of the peptides the E-rosetta forming activity of the lymphocytes inhibited by Azathioprine increases to different extent. […] It appears from the data of Table 2 that the tested peptides increase the E-rosetta forming capacity of inhibited lymphocytes, i.e. the peptides of the present invention show immunostimulant effect.

Substance: Glp-Lys-NH2 -mandelate
- Phagocyte activity x ± S.E.M. (number of yeast cells incorporated by the 100 PEC cells) ([1]; peptide 0.1 mg/kg s.c. 6 hours after CY): 226.5 ± 8.8
- Phagocyte activity x ± S.E.M. (number of yeast cells incorporated by the 100 PEC cells) ([1]; peptide 1.0 mg/kg s.c. 6 hours after CY): 252.2 ± 7.4
- Phagocyte activity x ± S.E.M. (number of yeast cells incorporated by the 100 PEC cells) ([1]; peptide 10 mg/kg s.c. 6 hours after CY): 257.3 ± 9.3
- Phagocyte activity x ± S.E.M. (number of yeast cells incorporated into the 100 PEC cells) ([2]; 0.1 mg/kg s.c. once a day for 2 days): 182.3 ± 3.5
- Phagocyte activity x ± S.E.M. (number of yeast cells incorporated into the 100 PEC cells) ([2]; 1.0 mg/kg s.c. once a day for 2 days): 209.3 ± 8.6
- Phagocyte activity x ± S.E.M. (number of yeast cells incorporated into the 100 PEC cells) ([2]; 10 mg/kg s.c. once a day for 2 days): 244.8 ± 4.3
- Phagocyte activity x ± S.E.M. (number of yeast cells incorporated by the 100 PEC cells) ([3]; CY 80 mg/kg p.o. + peptide 0.1 mg/kg s.c. simultaneously): 241.7 ± 20.3
- Phagocyte activity x ± S.E.M. (number of yeast cells incorporated by the 100 PEC cells) ([3]; CY 80 mg/kg p.o. + peptide 1.0 mg/kg s.c. simultaneously): 215.2 ± 21.5
- Phagocyte activity x ± S.E.M. (number of yeast cells incorporated by the 100 PEC cells) ([3]; CY 80 mg/kg p.o. + peptide 10 mg/kg s.c. simultaneously): 164.4 ± 13.8

Substance: Glp-Lys-NH2 [Peptide 1]
- Inhibition of the proliferation of K-562 cells, inhibition (c %) ([4]; peptide 1/ug/ml): 20%
- Inhibition of the proliferation of K-562 cells, inhibition (c %) ([4]; peptide 10/ug/ml): 42%
- No. of metastases in the lungs ([5]; treated animal No. 1, untreated control 15): 0
- No. of metastases in the lungs ([5]; treated animal No. 2, untreated control 20): 2
- No. of metastases in the lungs ([5]; treated animal No. 3, untreated control 16): 1
- No. of metastases in the lungs ([5]; treated animal No. 4, untreated control 12): 2
- No. of metastases in the lungs ([5]; treated animal No. 5, untreated control 11): 5
- Restoration of primary immune answer, G % ([6]; peptide 5 mg/kg i.p. on 3rd day): 123.8%
- Restoration of primary immune answer, G % ([6]; peptide 50 mg/kg i.p. on 3rd day): 133.3%
- Inhibition of inflammation induced by oxozolone, inhibition as % of control ([7]; 1 mg/kg i.p.): 62%
- Inhibition of inflammation induced by oxozolone, inhibition as % of control ([7]; 2 mg/kg i.p.): 61%
- Relief of inhibition (R %) of E-rosetta forming activity ([8]; peptide 10^-3 mole/l): 33.0%
- Relief of inhibition (R %) of E-rosetta forming activity ([8]; peptide 10^-5 mole/l): 9.9%
- Relief of inhibition (R %) of E-rosetta forming activity ([8]; peptide 10^-7 mole/l): 36.6%
- Relief of inhibition (R %) of E-rosetta forming activity ([8]; peptide 10^-9 mole/l): 25.0%
- Relief of inhibition (R %) of E-rosetta forming activity ([8]; peptide 10^-11 mole/l): 10.0%
